Test results reported in publication PMC6222871, “Suppression of Hepatitis C Virus Genome Replication and Particle Production by a Novel Diacylglycerol Acyltransferases Inhibitor” (Molecules : A Journal of Synthetic Chemistry and Natural …, 2018).

What was measured:
[1] = MTT-based cell viability assay (EZ-CYTOX); conditions: human
Protocol: To order to study impacts of DGAT inhibitors on HCV genome replication independently of the particle production, we decided to examine effects of these twelve DGAT inhibitors on the levels of viral RNA genome and cell viability in parallel. […] Then, we treated them with an increasing concentration of each DGAT inhibitor. Then, luciferase and MTT-based cell viability assays were performed to determine EC50 and CC50 (cytotoxic concentration required to kill 50% of treated cells) values, respectively.
Cell viability was measured with EZ-CYTOX (10% tetrazolium salt; Dogen, Gyeonggi-do, Korea) as described previously. Anti-HCV replication analysis using a luciferase assay was conducted as previously described.

[2] = test system: HCV genotype 1b (Huh7.5-Bart79I); experiment: HCV genome replication in sub-genomic replicon Huh7.5-Bart79I cells by real-time RT-PCR
Protocol: Quantitative real-time RT-PCR analysis to measure levels of HCV RNA and GAPDH was conducted as previously described. The cDNA synthesis and reverse transcription of miR-122 were performed by using Taqman quantitative RT-PCR (qRT-PCR) analysis. Taqmanq RT-PCR components including TaqMan miR122 probe, endogenous control U6 probe, TaqMan® MicroRNA reverse transcription Kit and TaqMan® universal master mix II were purchased from Thermo Fisher Scientific (Waltham, MA, USA)

[3] = test system: HCV NS3 (Huh7.5-J6/JFH1, genotype 2a); experiment: western blot of HCV NS3 protein in Huh7.5-J6/JFH1 cells
Protocol: Due to the tight coupling of viral genome replication to its protein expression, inhibition of viral RNA genome replication leads to a subsequent reduction of viral protein expression.
(A) Dose-dependent western blot analysis of Huh7.5-J6/JFH1 cells treated with increasing concentrations of 10j for 72 h by measuring protein expression levels of HCV NS3 relative to the β-actin. Daclatasvir, an NS5A inhibitor was used as a positive control. (B) Time-dependent western blot analysis of J6/JFH1 RNA-transfected Huh7.5 cells treated with 8 μM of 10j for increasing periods of time analyzed by measuring protein expression levels of HCV NS3 relative to the β-actin. (C,D) Same experiments were performed as in (A,B) to study effects of 10j on the expression levels of the NS5A protein of Huh7.5-Bart79I cells in a dose- as well as time-dependent manners.
Western blot analysis of Huh7.5-J6/JFH1 or Bart79I cells treated with 10j was conducted as previously described. Relative amounts of HNF4α proteins were quantified by using an HNF4α mouse monoclonal antibody (M04), clone 4E2 (Abnova) with the dilution of 1:1000.

[4] = test system: Huh7.5-J6/JFH1 cells; experiment: immunofluorescence of dsRNA (J2 antibody) and LD (Oil-Red-O) in Huh7.5-J6/JFH1 cells; format: cell-based, hepatitis C virus; conditions: increasing concentrations, 72 h
Protocol: They were treated with a series of increasing concentrations of 10j for 72 h. […] Since double-stranded (ds) RNAs were regarded as a genuine marker for endogenous viral RNA synthesis due to their roles as intermediates during viral RNA replication, we wished to test effect of 10j on expression and localization of the viral dsRNAs. For this purpose, Huh7.5-J6/JFH1 cells were treated with a series of increasing concentrations of 10j for 72 h. Then, dsRNAs were visualized by using a dsRNA-specific J2 antibody. […] To study effects of 10j on localization of LDs in parallel, LDs were also co-stained in an Oil-Red-O (ORO) dye.
Immunofluorescence analysis of Huh7.5-J6/JFH1 or Huh7.5-JFH1-5A-GFP cells in the presence of 10j was conducted as previously described [35]. Fluorescence were examined and captured by Nikon confocal laser scanning microscopic system. LD content was quantified using the ImageJ program.

[5] = test system: HCVcc particles (JFH1-NS5A-GFP); experiment: HCVcc infectivity and time-of-addition assay; format: cell-based, hepatitis C virus; conditions: pre-treatment (−2 h), co-treatment (0 h), post-treatment (+2 h); dose-dependent
Protocol: In order to test the effects of 10j on the early viral functions, such as the viral entry and uncoating of the viral genome, we performed the “time of addition” experiment by using the cell culture-derived infectious HCVcc particles (JFH1-NS5A-GFP) (Figure 4A).
The time-of-addition assay was conducted as previously reported [38]. Briefly, naïve Huh-7.5 cells were plated in 384-well plates and incubated with serially diluted 10j at specific time points during virus infection: pre-infection treatment; co-infection treatment; post-infection treatment. Afterwards, infected cells were incubated at 37 °C for 3 days in the presence of inhibitors. At 72 h post-infection, HCV infection rates and cytotoxicity were determined by the number of GFP positive cells and Hoechst 33,342 positive cell nuclei, a marker for cell viability, respectively, using fully automated confocal microscopy (Opera, PerkinElmer, Hamburg, Germany). The acquired images were analyzed by in-house developed software. Percentages of HCV inhibition were calculated using 1% DMSO-treated cells and 10 μM of sofosbuvir treated cells and were set to 0% and 100% inhibition, respectively. Experiments were conducted at least two-times independently and in triplicates.

[6] = test system: Huh7.5-J6/JFH1 cells; experiment: immunofluorescence of NS3 and LD (BODIPY) in Huh7.5-J6/JFH1 cells; format: cell-based, hepatitis C virus; conditions: 72 h
Protocol: Based on previous results, we noticed that EC50 values required for inhibition of the HCV genome replication by 10j were around 1–2 μM ranges (Figure 2 and Table 3). However, IC50 value required for inhibition of the enzymatic DGAT activities in vitro by 10j was reported to be higher than 5 μM (Table 2 and Figure 6E). Based on these observations, we hypothesized that inhibition of DGATs by 10j may not play a direct role in suppression of the viral genome replication. To test this hypothesis, we decided to study effects of 10j on DGAT and the viral genome replication in a simultaneous manner. […] Then, the viral NS3 protein and LDs were visualized by using an anti-NS3 antibody and BODIPY, respectively. […] Significant reduction of LD was only seen after treatment of 10j higher than 5 μM. In order to confirm this observation, we decided to utilize another HCV-positive cell—JFH1-NS5A-GFP cells—which were infected with infectious HCV genotype 2a particles with a visually tractable NS5A due to the presence of in-frame-fused GFP protein with NS5A. TGs of these cells were stained with ORO for visualization in parallel. […] In accordance with the previous result, reduction of the NS5A-GFP protein preceded decline of TG biosynthesis (Figure 7D).
Immunofluorescence analysis of Huh7.5-J6/JFH1 or Huh7.5-JFH1-5A-GFP cells in the presence of 10j was conducted as previously described. Fluorescence were examined and captured by Nikon confocal laser scanning microscopic system. LD content was quantified using the ImageJ program.

[7] = test system: HCV IRES; experiment: HCV IRES-dependent translation, dual luciferase reporter in Huh7.5 cells; format: cell-based, hepatitis C virus; conditions: up to 10 μM
Protocol: A dual luciferase reporter plasmid, which expresses firefly and renila luciferases through cap and HCV IRES-dependent translation, was transfected into Huh7.5 cells in the presence of 10j. Dual luciferase assay was conducted as previously described.

[8] = test system: miR122; experiment: miR122 RT-PCR in Huh7.5-J6/JFH1 cells; format: cell-based; conditions: up to 8 μM, 72 h
Excerpt: Since DGATs play an important role in maintaining liver-likeness in hepatocytes, the antiviral effect of 10j might be due to mere loss of this liver-specific character. […] In addition, HNF4α was also reported to be reduced in DGAT1-silenced cell lines. Therefore, we wished to test effects of 10j on HNF4α.

[9] = test system: DGATs (rat liver microsome); set-up: method as in PMID 23141914, PMID 23242135; conditions: cited from earlier work
[10] = test system: recombinant DGAT-1; set-up: method as in PMID 23242135; conditions: recombinant DGAT-1, [14C] oleoyl-CoA as acyl-donor; cited from earlier work
[11] = test system: recombinant DGAT-2; set-up: method as in PMID 23242135; conditions: cited from earlier work
[12] = test system: HepG2 cells; set-up: method as in PMID 23242135; conditions: [14C] glycerol as substrate; cited from earlier work

Compound: O=C(NCc1ccco1)c1ccc2[nH]c(COc3ccc(C45CC6CC(CC(C6)C4)C5)cc3)nc2c1 [10j, 2-{[4-(adamant-1yl)phenoxy]methyl)-N-(furan-2-ylmethyl)-1H-benzo[d]imidazole-5-carboxamide]
- CC50 [1]: 38.9 µM
- T1/2, time required for reducing the viral RNAs by half ([2]; 8 μM, genotype 1b): 19.2 h
- EC50 ([2]; Hepatitis C virus, 72 h, read-out: EC50 HCV RNA, subgenomic replicon): 3.3 µM
- EC50 ([3]; Hepatitis C virus, GETYPE2A, 72 h, read-out: concentration required for reducing 50% of HCV protein expression (EC50)): 3.6 µM
- time required for reducing 50% of HCV protein expression (T1/2) ([3]; genotype 2a, 10 μM of 10j, 8 μM (figure legend)): 37.8 h
- amount of dsRNAs [4]: significantly reduced
- expression level of total LDs (Oil-Red-O) [4]: dose-dependent reduction
- infection of Huh7.5 cells with HCVcc particles [5]: all abrogated
- concentration at which the viral NS3 protein started to disappear [6]: 1 µM
- concentration for significant reduction of LD [6]: higher than 5 μM
- LD levels (BODIPY) ([6]; up to 2 μM): stayed unaltered
- HCV IRES-dependent translation [7]: remained unaltered
- expression levels of miR122 [8]: increased levels of miR122
- IC50 [9]: 4.4 µM
- IC50 [10]: 9 µM
- IC50 [11]: 17.3 µM
- TG % (10 μM in HepG2), relative [14C] triglyceride percentage [12]: 45.0%
